By IC50 is commonly meant the concentration needed to halve the response being measured. A lower IC50 goes with greater potency.

For the assay, the target named is T1, Cysteine protease ATG4B (Homo sapiens, UniProt Q9Y4P1).
T1 sequence (Q9Y4P1 whole entry): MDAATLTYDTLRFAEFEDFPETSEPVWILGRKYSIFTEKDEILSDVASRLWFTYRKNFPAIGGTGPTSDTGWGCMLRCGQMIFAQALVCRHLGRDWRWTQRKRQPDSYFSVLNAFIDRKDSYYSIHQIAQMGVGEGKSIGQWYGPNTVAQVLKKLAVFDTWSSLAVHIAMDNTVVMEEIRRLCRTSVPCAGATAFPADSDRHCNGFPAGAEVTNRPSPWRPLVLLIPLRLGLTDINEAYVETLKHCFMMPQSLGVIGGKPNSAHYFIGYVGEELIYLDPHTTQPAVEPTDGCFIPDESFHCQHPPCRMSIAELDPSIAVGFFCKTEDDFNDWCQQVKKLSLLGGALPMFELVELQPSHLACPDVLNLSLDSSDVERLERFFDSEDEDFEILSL
As to the kind of experiment: autophagin-1 cysteine protease inhibition – biochemical, fluorescence, set 2, dose response (AID 588584).
The compound `CC1=CC(/C=N/n2c(COc3ccccc3)nc3ccccc3c2=O)C(=O)C([N+](=O)[O-])=C1` (stereo not drawn) [3-[[(E)-(3-methyl-5-nitro-6-oxocyclohexa-2,4-dien-1-ylidene)methyl]amino]-2-(phenoxymethyl)quinazolin-4-one] came in with an IC50 of 22.8 µM.

Turning to `Cc1ccc(NC2=NC(=O)C(=Cc3c(C)[nH]c4ccccc34)S2)cc1` [5-[(2-methyl-1H-indol-3-yl)methylene]-2-[(4-methylphenyl)imino]-1,3-thiazolidin-4-one], the IC50 was found to be 30.6 µM.

`Oc1ccc2ccccc2c1CN=Nc1nnc(-c2ncc[nH]2)c2ccccc12` [SMR000151639] gave an IC50 of 5.4 µM.

These data come from BindingDB's records for doi:10.7270/Q21V5CG8 (Burnham Center For Chemical Genomics, 2011).
